# Source: doi:10.1101/2023.08.21.552681v1 (biorxiv, 2023)
# What was measured:
# ctdWDR91 [1] = target: T1, ctdWDR91 (Homo sapiens, UniProt A4D1P6); assay: biochemical
# T1 sequence (A4D1P6 392-747): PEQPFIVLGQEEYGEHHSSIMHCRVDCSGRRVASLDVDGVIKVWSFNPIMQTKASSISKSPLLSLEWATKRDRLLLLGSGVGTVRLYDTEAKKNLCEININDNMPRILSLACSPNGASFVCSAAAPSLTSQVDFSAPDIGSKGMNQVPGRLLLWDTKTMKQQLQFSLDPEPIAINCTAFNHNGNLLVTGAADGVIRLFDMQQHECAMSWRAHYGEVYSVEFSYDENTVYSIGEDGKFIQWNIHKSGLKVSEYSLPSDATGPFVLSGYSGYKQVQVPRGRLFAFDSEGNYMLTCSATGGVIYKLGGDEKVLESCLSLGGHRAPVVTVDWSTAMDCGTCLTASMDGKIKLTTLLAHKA
# ctdWDR91 [2] = target: T1, ctdWDR91; conditions: at saturation (0-200 uM series), 2 h pre-incubation; covalent
Compound,Kd (ctdWDR91 [1]),DSF_delta_Tm_ (ctdWDR91 [2])
O=C(N[C@@H]1CCO[C@H]1c1ccc(Cl)cc1)c1ccc(N2CCC(O)C2)cc1 (stereo partly drawn) [DRGG002001a],> 45 µM,
CC1(NC(=O)c2ccc(N3CCC(O)C3)cc2)CCN(C(=O)OC(C)(C)C)C1 (stereo not drawn) [DRGG002003a],> 45 µM,
O=C(CNC(=O)c1ccc(N2CCC(O)C2)cc1)OCc1ccc(Cl)cc1 (stereo not drawn) [DRGG002006a],> 45 µM,
O=C(NOCc1ccc(Cl)cc1)c1ccc(N2CCC(O)C2)cc1 (stereo not drawn) [DRGG002010a],> 45 µM,
O=C(NC1CC1)c1ccc(C(=O)NC2CCN(c3ccc(Cl)cc3)C2)cc1 (stereo not drawn) [DRGG002012a],> 45 µM,
CC1CCN(c2ccc(C(=O)NC3(Cc4ccc(F)cc4)CC3)cc2)C1 (stereo not drawn) [DRGG002014a],> 45 µM,
CC1CCN(c2ccc(C(=O)NC3(c4ccc(F)cc4)CC3)cc2)C1 (stereo not drawn) [DRGG002016a],> 45 µM,
C=CC(=O)N1CCCc2c(C(=O)NC(c3ccc(F)cc3)C3CCCCC3)cccc21 (stereo not drawn) [DRTR002366a],> 45 µM,
C=CC(=O)Nc1ccc(CC(=O)NC2(c3ccccc3)COC2)cc1 [MRTR046653a],> 45 µM,

# Next, values leading:
Kd (ctdWDR91 [1]),DSF_delta_Tm_ (ctdWDR91 [2]),Compound
> 45 µM,,O=C(NCC1CCN(c2ccc(F)cc2)C1)N1CC(O)(c2ccc(Cl)cc2)C1 (stereo not drawn) [DRGG002002a]
> 45 µM,,O=C(NCC1CCN(c2ccc(Cl)cc2)C1)NC1(c2ccc(F)cc2)CC1 (stereo not drawn) [DRGG002005a]
> 45 µM,,O=C(NCC1CCN(c2ccc(Cl)cc2)C1)N1CC(O)(c2ccc(F)cc2)C1 (stereo not drawn) [DRGG002007a]
> 45 µM,,O=C(NCC1CCN(c2ccc(F)cc2)C1)NCC1(c2ccc(Cl)cc2)CC1 (stereo not drawn) [DRGG002008a]
> 45 µM,,CC1CCN(c2ccc(C(=O)NC3(Cc4cccc(F)c4)CC3)cc2)C1 (stereo not drawn) [DRGG002009a]
12 µM,,O=C(NCc1ccc2nsnc2c1)c1ccc(N2CCC(O)C2)cc1 (stereo not drawn) [DRGG002011a]
> 45 µM,,O=C(NCCOc1ccc(Cl)cc1)c1ccc(N2CCC(O)C2)cc1 (stereo not drawn) [DRGG002013a]
> 45 µM,,O=C(NCC1CCN(c2ccc(F)cc2)C1)NC1(c2ccc(Cl)cc2)CC1 (stereo not drawn) [DRGG002015a]
> 45 µM,,NC(=O)c1ccc(C2(C(=O)NCC3CCN(c4ccc(Cl)cc4)C3)CC2)cc1 (stereo not drawn) [DRGG002017a]
> 45 µM,,O=C(NC1(c2ccc(Cl)cc2)COC1)c1ccc2c(c1)NC(=O)C1CCCN21 (stereo not drawn) [DRGG002018a]
,4 °C,C=CC(=O)N1CCCc2c(C(=O)NC(c3ccc(Cl)cc3)C3CC3)cccc21 (stereo not drawn) [DRTR002365a]
,4 °C,C=CC(=O)N1CCCc2c(C(=O)NC3(c4ccc(Cl)cc4)COC3)cccc21 [MRTR046654a]
